Assay results published in US20220396825A1, “METHOD FOR PREPARING […]” (KAO CORPORATION, priority 2019, published 2022).
Where “and” joins values, the source holds several entries; their conditions need not be identical. Equal entries are not always repeated.

What was measured:
Assay type in all cases: cell-based, Salmonella typhimurium
genome of TA100 strain [1] = test: Mutation frequency in 3-MC-exposed library by sequencing utilizing information on complementary strands
Excerpt: The flows of a sequencing method and mutation analysis used in Comparative Examples and Examples described later will be described in the following. Fundamentally, the highly accurate sequencing method utilizing information on complementary strands, which is described in Patent Literature 4, was used. Specifically, a library was subjected to sequencing, and read pairs expected to be derived from the same DNA fragment were collected. Then, a consensus read sequence (a consensus read sequence considering complementary strands) was generated among read sequences expected to be derived from two complementary strands (hereinafter, referred to as strand A and strand B) of the DNA fragment. Acquired consensus read sequences considering complementary strands were used for mutation analysis.
(§1) DMSO-exposed cells were prepared with the same procedure as in 1) of Comparative Example 1, and TA100 strain was exposed to 3-methylcholanthrene (3-MC) with the same procedure. In DMSO, 3-MC (produced by Sigma-Aldrich Co. LLC., CASRN.56-49-5) was dissolved. Into test tubes, 100 μL of the 3-MC solution, 500 μL of S9 mix (produced by IEDA TRADING Corporation), and 100 μL of the pre-culture solution for TA100 strain were added (amount of 3-MC: 1000 μg/tube), and the resultants were subjected to shaking culture at 100 rpm in a water bath at 37° C. for 20 minutes (3-MC-exposed cells). Cells were collected from the bacterial suspensions, and DNA was extracted with the same procedure as in 1) of Comparative Example 1.
From DNA derived from the DMSO-exposed cells or the 3-MC-exposed cells, a plurality of samples each of which was to give 60 ng or 100 ng of DNA were prepared, and the samples were each fragmented into pieces having a length of approximately 350 bp on average by using a DNA Shearing System ME220. The fragments of each sample were divided into two groups. For the group without nuclease treatment (nontreatment group), the DNA fragments were suspended in Resuspension buffer attached to the TruSeq for End Repair in the subsequent step in accordance with the recommended protocol to afford 60 μL of eluate. For the group with nuclease treatment (treatment group), the DNA fragments were purified through steps of adsorbing on Sample Purification Beads attached to the TruSeq (hereinafter, also expressed as beads, simply), washing twice with 80% ethanol water, and drying in accordance with the recommended protocol. In the subsequent elution operation, the beads were suspended in distilled water (DW, produced by NIPPON GENE CO., LTD.) to afford 30 μL of DNA eluate containing DNA fragments.
To the DNA eluate obtained in I), 4 μL of 10× Reaction Buffer attached to the S1 nuclease was added. The S1 nuclease was appropriately diluted with 1× Reaction Buffer, 1, 3, 10, 30, 100, or 300 U thereof was added to the DNA eluate, and DW was added thereto to a total volume of 40 μL. For the sample to which 1000 U of the S1 nuclease was to be added, 4.6 μL of 10× Reaction Buffer was added to 30 μL of the DNA eluate obtained by beads purification, and 12 μL of the stock solution of the S1 nuclease was added thereto to a total volume of 46 μL. Each reaction solution with the S1 nuclease was incubated at 30° C. for 30 minutes. Assuming that the whole amount of DNA (60 ng) present at the beginning of library preparation existed in each reaction solution, the numbers of units of the S1 nuclease per 1 ng of DNA were 0.02, 0.05, 0.17, 0.50, 1.67, 5.00, and 16.7 U/ng. For inactivation of the S1 nuclease in each reaction solution, 3 μL of 0.5 M EDTA (pH 8.0) (produced by NIPPON GENE CO., LTD.) was added, and the resultant was incubated at 70° C. for 10 minutes. […]

TA100 strain = test: Ames test (pre-incubation method), number of revertant colonies; settings: S9 mix; for Number of revertants: individual plates 1-3; for Number of revertants, Mean: mean of three plates
Method: Exposure of the TA100 cell line to DMSO was performed in accordance with the Ames pre-incubation method (Mol. Mech. Mutagen., 455:29-60, 2000, Sci. Rep. 8 (1):9583). TA100 strain was seeded in 2 mL of Nutrient Broth No. 2 (produced by Oxoid Limited), and subjected to shaking culture at 37° C. and 180 rpm for 4 hours to afford pre-culture solution with an OD660 value of 1.0 or higher. Into test tubes, 100 μL of DMSO, 500 μL of S9 mix (produced by IEDA TRADING Corporation), and 100 μL of the pre-culture solution were added, and the resultants were subjected to shaking culture at 100 rpm in a water bath at 37° C. for 20 minutes (DMSO-exposed cells). After shaking culture for 20 minutes, the test tubes each containing a culture solution were taken out of the water bath, and 50 μL of each culture solution was added to 2 mL of Nutrient Broth solution (containing 18.5% S9 mix) aliquoted in advance, and the resultant was further cultured in an incubator at 37° C. and 180 rpm for 14 hours. After the culture, the bacterial suspensions were collected and centrifuged at 7,500 rpm for 5 minutes, and the supernatants were removed to collect the cells. From the DMSO-exposed cells, total DNA was collected by using a DNeasy Blood & Tissue Kit (produced by QIAGEN) in accordance with the recommended protocol. The double-stranded DNA concentration of each DNA sample obtained was measured by using a Qubit3.0 Fluorometer (produced by Thermo Fisher Scientific) with a Qubit™ dsDNA BR Assay Kit attached thereto.
as §1, with “([…]),” for “(amount of 3-MC: 1000 μg/tube),”
For the Ames test, a bacterial suspension exposed to 3-MC under the above-described conditions was prepared. Thereto, 2 mL of top agar (containing 1% NaCl, 1% agar, 0.05 mM histidine, and 0.05 mM biotin) warmed to 45° C. was added and the resultant was stirred by using a Vortex, and poured onto a minimal glucose agar medium (Tesmedia® AN; produced by Oriental Yeast Co., Ltd.) to form a layer. The resulting plate was subjected to culturing at 37° C. for 48 hours, and the number of colonies observed was counted.

genome of TA100 strain [2] = test: Mutation frequency in 3-MC-exposed library by sequencing utilizing information on complementary strands; remark: listed apart in the source

SMILES: Cc1ccc2cc3c(ccc4ccccc43)c3c2c1CC3 [3-MC, 3-methylcholanthrene]
- SN ratio determined from mean values of GC→TA mutation frequency (genome of TA100 strain [1]; 3-MC vs DMSO control, without MBN treatment, each n=3): 1.61
- mean value of mutation frequency for GC→TA (genome of TA100 strain [1]; 3-MC-exposed, without MBN treatment, n=3): 0.176×10^−6
- GC → TA mutation frequency increase rate (3MC/DMSO control), SN ratio (genome of TA100 strain [1]; MBN experiment, MBN 0 U/ng (nontreatment)): 2.04
- GC → TA mutation frequency increase rate (3MC/DMSO control), SN ratio (genome of TA100 strain [1]; RecJf experiment, RecJf 0 U/ng (nontreatment)): 2.04
- GC → TA mutation frequency increase rate (3MC/DMSO control), SN ratio (genome of TA100 strain [1]; library S1 nuclease 0 U/ng (nontreatment)): 1.27
- GC → TA mutation frequency increase rate (3MC/DMSO control), SN ratio (genome of TA100 strain [1]; library treated with MBN 0.03 U/ng): 1.60
- GC → TA mutation frequency increase rate (3MC/DMSO control), SN ratio (genome of TA100 strain [1]; library treated with MBN 0.10 U/ng): 1.81
- GC → TA mutation frequency increase rate (3MC/DMSO control), SN ratio (genome of TA100 strain [1]; library treated with MBN 0.30 U/ng): 1.34
- GC → TA mutation frequency increase rate (3MC/DMSO control), SN ratio (genome of TA100 strain [1]; library treated with MBN 1.00 U/ng): 1.92
- GC → TA mutation frequency increase rate (3MC/DMSO control), SN ratio (genome of TA100 strain [1]; library treated with RecJf 1.00 U/ng): 1.94
- GC → TA mutation frequency increase rate (3MC/DMSO control), SN ratio (genome of TA100 strain [1]; library treated with S1 nuclease 0.02 U/ng): 2.1
- GC → TA mutation frequency increase rate (3MC/DMSO control), SN ratio (genome of TA100 strain [1]; library treated with S1 nuclease 0.05 U/ng): 1.97
- GC → TA mutation frequency increase rate (3MC/DMSO control), SN ratio (genome of TA100 strain [1]; library treated with S1 nuclease 0.17 U/ng): 2.72
- GC → TA mutation frequency increase rate (3MC/DMSO control), SN ratio (genome of TA100 strain [1]; library treated with S1 nuclease 0.50 U/ng): 3.75
- GC → TA mutation frequency increase rate (3MC/DMSO control), SN ratio (genome of TA100 strain [1]; library treated with S1 nuclease 1.67 U/ng): 3.35
- GC → TA mutation frequency increase rate (3MC/DMSO control), SN ratio (genome of TA100 strain [1]; library treated with S1 nuclease 5.00 U/ng): 1.63
- GC → TA mutation frequency increase rate (3MC/DMSO control), SN ratio (genome of TA100 strain [1]; library treated with S1 nuclease 16.7 U/ng): 3.59
- Number of revertants (TA100 strain; 3-MC 10 μg/plate): 887 and 881 and 1279
- Number of revertants, Mean (TA100 strain; 3-MC 10 μg/plate): 1016
- Number of revertants (TA100 strain; 3-MC 20 μg/plate): 1539 and 1484 and 1509
- Number of revertants, Mean (TA100 strain; 3-MC 20 μg/plate): 1511
- Number of revertants (TA100 strain; 3-MC 100 μg/plate): 1519 and 1539 and 1797
- Number of revertants, Mean (TA100 strain; 3-MC 100 μg/plate): 1618
- GC → TA mutation frequency increase rate (3MC/DMSO control), SN ratio (genome of TA100 strain [2]; library treated with RecJf 0.03 U/ng): 1.48
- GC → TA mutation frequency increase rate (3MC/DMSO control), SN ratio (genome of TA100 strain [2]; library treated with RecJf 0.10 U/ng): 2.14
- GC → TA mutation frequency increase rate (3MC/DMSO control), SN ratio (genome of TA100 strain [2]; library treated with RecJf 0.30 U/ng): 1.68
